Here are results for 19 molecules from patent EP2737897A2, “Anti-inflammatory botanical products for the treatment of metabolic syndrome and diabetes” (Metaproteomics, LLC, priority 2005, dated 2007).

Converted amounts (≈) assume the structure as drawn. Like-named read-outs stand apart in the source and are kept apart here. Marks after values point to notes of the source that are not given here.

One may read the IC50 as the concentration needed to halve the response being measured.

The test system of data set [1] is IL-6 secretion in LPS/3T3-L1 adipocytes. The experiment in a line: IL-6 secretion in the lipopolysaccharide/3T3-L1 adipocyte model (Example 26). It counts as cell-based, murine. Conditions: 100 ng LPS/ml.
Data set [2] deals with adiponectin secretion in LPS/3T3-L1 adipocytes. Nature of the data set: Adiponectin secretion in the lipopolysaccharide/3T3-L1 adipocyte model (Example 26). Conditions: 100 ng LPS/ml; for % Stimulation (maximum, adiponectin secretion): NS = not significantly different from the LPS control.
The test system of data set [3] is PGE2 synthesis. Nature of the data set: cells. Conditions: for IC50: Mus musculus. It counts as cell-based, murine.
Data set [4] concerns NF-kBp65. Nature of the data set: NF-kBp65 nuclear translocation in TNFα-treated D40 3T3-L1 adipocytes, TransAM ELISA (Example 32). Conditions: 2.5 and 5.0 µg/ml; three or 24 hours following TNFα. It counts as cell-based, murine. How it is done: ELISA - 3T3-L1 adipocytes were maintained in growth media for 40 days following differentiation. Nuclear NF-kBp65 was determined using the TransAM™ NF-kB kit from Active Motif (Carlsbad, CA) was used with no modifications. […] Protein assay - Nuclear protein was quantified using the Active Motif Fluorescent Protein Quantificantion Kit. Statistical Analysis - Comparisons were performed using a one-tailed Student's t-test. The probability of a type I error was set at the nominal five percent level.
(In an ELISA, binding on a coated surface is turned into a signal by an enzyme label.)

Data set [5] relates to interleukin-6 secretion from TNFα-treated 3T3-L1 adipocytes. The experiment in a line: Interleukin-6 secretion from TNFα-treated 3T3-L1 adipocytes. The data set is classed as cell-based, murine. Conditions: Mus musculus, 3T3-L1, read-out: IL-6 Index.
Data set [6] has as its system 3T3-L1 adipocytes. Nature of the data set: Lipogenesis in 3T3-L1 adipocytes, Oil Red O or BODIPY staining. The data set is classed as cell-based, murine.
The subject of data set [7] is NF-κB. The experiment in a line: NF-κB DNA binding of nuclear extracts of LPS-stimulated RAW 264.7 cells, TransAM NF-κB kit (Example 9). The data set is classed as cell-based, murine. Conditions: MgRIAA 55 and 14 µg/ml, parthenolide 80 µM, LY294002 25 µM; LPS 1 µg/ml 4 h.
Data set [8] has as its system COX-2 protein expression. Nature of the data set: Western blot of COX-2 protein expression in LPS-stimulated RAW 264.7 cells (Example 8). It counts as cell-based, murine. Conditions: 20 hours stimulation with LPS; compared to DMSO solvent control. For orientation: A western blot detects proteins with antibodies after separation by electrophoresis.
Data set [9] concerns IL-6 secretion from insulin-resistant 3T3-L1 adipocytes. Nature of the data set: IL-6 secretion from insulin-resistant 3T3-L1 adipocytes. It counts as cell-based, murine. Conditions: Mus musculus.
Data set [10] deals with adiponectin secretion from insulin-resistant 3T3-L1 adipocytes. Nature of the data set: cells. Conditions: Mus musculus.
Data set [11] has as its system adiponectin secretion from TNFα-treated 3T3-L1 adipocytes. Nature of the data set: Adiponectin secretion from TNFα-treated 3T3-L1 adipocytes. Conditions: 10 ng TNFα/ml (Table 9).
For data set [12], the system named is adiponectin secretion from insulin-resistant 3T3-L1 adipocytes.
Data set [13] deals with resistin secretion from insulin-resistant 3T3-L1 adipocytes. The experiment in a line: cells. Conditions: Mus musculus, 3T3-L1, read-out: Resistin Index.
Description: Resistin Assay - The amount of resistin secreted into the medium was quantified using the Quantikine® Mouse Resistin Immunoassay kit with no modifications (R&D Systems, Minneapolis, MN). […] All supernatant media samples were diluted 1:20 with dilution media supplied by the manufacturer before assay.
Statistical Calculations and Interpretation - All assays were preformed in duplicate. […] Differences among the doses were determined using the Student's t-test without correction for multiple comparisons; the nominal five percent probability of a type I error (one-tail) was selected.
Where [14] appears, read: RAW264.7, read-out: Relative IC50.
Where [15] appears, read: 3T3-L1, read-out: Adiponectin Index.

For the molecule `O=C(O)c1ccccc1O` [Salicylic acid], the “Concentration (dose providing the maximum inhibition of IL-6 secretion)” value in data set [1] turned out to be 50.0 µg/mL. In addition, the “IL-6 Index (maximum inhibition)” value in data set [1] ([IL-6Test - IL-6Control]/[IL-6LPS - IL-6Control]) is listed as 0.52*. For the same molecule, in data set [2], the “Concentration (of maximum stimulation of adiponectin secretion)” value amounted to 173 µg/mL and the “% Stimulation (maximum, adiponectin secretion)” value (from here on “% Stimulation”) was “failed to induce adiponectin secretion”.

Take `O=c1c(-c2ccc(O)cc2)coc2cc(O)cc(O)c12` [Genistein]: in [3], the “Relative Potency” value was “high”.

Consider `CCc1ccc(CCOc2ccc(CC3SC(=O)NC3=O)cc2)nc1` (stereo not drawn) [Pioglitazone], for which the “amount of nuclear NF-kBp65” value in [4] is on record as “did not inhibit”. The “% Inhibition (maximum, IL-6 secretion)” value in data set [1] was 63* %. Further, in data set [2], the “% Stimulation” value is recorded as 12%.

For `CC(=O)Oc1ccccc1C(=O)O` [Aspirin], the “Concentration (dose providing the maximum inhibition of IL-6 secretion)” value in data set [1] was determined as 25.0 µg/mL. Moreover, in data set [2], the “Concentration (of maximum stimulation of adiponectin secretion)” value came out at 113 µg/mL and the “% Stimulation” value is listed as “failed to induce adiponectin secretion”.

On to `O=c1c(O)c(-c2ccccc2)oc2cc(O)cc(O)c12` [Galangin], for which the “Relative Potency” value in data set [3] is listed as “high”.

Regarding `Oc1ccc(C=Cc2cc(O)cc(O)c2)cc1` [Resveratrol], the values for the IC50 in data set [3] (RAW264.7) and in data set [3] (setting [14]) were 5.8 µg/mL (≈ 25.4 µM) and 2 to 6 µg/mL (≈ 8.76 to 26.3 µM), respectively.

Turning to `Oc1cc(O)c2c(c1)OC(c1ccc(O)c(O)c1)C(O)C2` (stereo not drawn) [Catechin], the concentration for half-maximal inhibition (IC50) in [3] (RAW264.7) and in data set [3] (setting [14]) was more than 12 µg/mL in each case.

In the case of `CN(C)C(=N)N=C(N)N` [Metformin], in data set [5], the activity at 1 µg/mL came out at 91%, the activity at 5 µg/mL stood at 96%, the activity at 10 µg/mL came to 78% and the activity at 50 µg/mL is 78%. Also, the activity at 50 µg/mL in data set [6] (Mus musculus, 3T3-L1, read-out: lipogenic index (observed)) is 79%.

As to `C=C1C(=O)O[C@@H]2[C@H]3O[C@]3(C)CC/C=C(\C)CC[C@@H]12` [Parthenolide], the “NF-κB DNA binding” value in data set [7] is given as “significant reduction”. In addition, the “reduction in COX-2 protein expression” value in [8] turned out to be 22.5%.

Regarding `C[C@@H]1O[C@@H](OC[C@H]2O[C@@H](Oc3c(-c4ccc(O)c(O)c4)oc4cc(O)cc(O)c4c3=O)[C@H](O)[C@@H](O)[C@@H]2O)[C@H](O)[C@H](O)[C@H]1O` [Rutin], the IC50 in [3] (RAW264.7) and in data set [3] (setting [14]) was more than 12 µg/mL throughout.

Consider `O=c1c(O)c(-c2ccc(O)cc2)oc2cc(O)cc(O)c12` [Keampferol], for which the IC50 was 4.3 µg/mL (≈ 15 µM) in data set [3] (RAW264.7) and 2 to 6 µg/mL (≈ 6.99 to 21 µM) in [3] (setting [14]).

Take `CC(C)Cc1ccc(C(C)C(=O)O)cc1` (stereo not drawn) [Ibuprofen]: in [1], the “% Inhibition (maximum, IL-6 secretion)” value is reported as 54* % and the “Concentration (dose providing the maximum inhibition of IL-6 secretion)” value was 0.625 µg/mL. For the same molecule, in [2], the “Concentration (of maximum stimulation of adiponectin secretion)” value amounted to 0.625 µg/mL and the “% Stimulation” value turned out to be 22%.

For `O=c1c(O)c(-c2ccc(O)c(O)c2)oc2cc(O)cc(O)c12` [Quercetin], in [3], the “Relative Potency” value is given as “high”.

Regarding `Cc1c(C)c2c(c(C)c1O)CCC(C)(COc1ccc(CC3SC(=O)NC3=O)cc1)O2` (stereo not drawn) [Troglitazone], in data set [9] (3T3-L1, read-out: IL-6 Index), the activity at 0.625 µg/mL was determined as 100% and the activity at 5 µg/mL was 131%. The activity at 1 µg/mL in data set [5] was 66%. For the same molecule, the EC50 in data set [10] (3T3-L1, read-out: Test Material at Half Maximal Secretion, estimated from the slope of Hofstee plots) is 0.085 µg/mL (≈ 0.193 µM). The “Concentration (of maximum adiponectin secretion)” value in data set [11] was determined as 0.625 µg/mL. In data set [12] (of the four doses tested), the “concentration at which maximal adiponectin secretion was observed” value stood at 2.5 µg/mL. For the same molecule, in [1], the “% Inhibition (maximum, IL-6 secretion)” value is 69* % and the “Concentration (dose providing the maximum inhibition of IL-6 secretion)” value is 10.0 µg/mL. In addition, in data set [13], the activity at 0.625 µg/mL worked out at 89% and the activity at 5 µg/mL was 143%. Also, in [2], the “Concentration (of maximum stimulation of adiponectin secretion)” value was determined as 0.625 µg/mL and the “% Stimulation” value is 15%.

As for `COc1ccc2c(c1)c(CC(=O)O)c(C)n2C(=O)c1ccc(Cl)cc1` [Indomethacin], the activation at 5 µg/mL in data set [6] (Mus musculus, 3T3-L1, read-out: increase of nonpolar lipid incorporation relative to the solvent controls) came out at 33%. In data set [1], the “% Inhibition (maximum, IL-6 secretion)” value is 53* %. For the same molecule, the “% Stimulation” value in [2] amounted to 9%.

Turning to `O=c1c(O)c(-c2cc(O)c(O)c(O)c2)oc2cc(O)cc(O)c12` [Myricetin], the IC50 in data set [3] (RAW264.7) and in data set [3] (setting [14]) was more than 12 µg/mL each time.

Take `c1cc2c(cc1[C@H]1OC[C@H]3[C@@H]1CO[C@@H]3c1ccc3c(c1)OCO3)OCO2` [Sesamin]: the IC50 in data set [3] (RAW264.7) and in data set [3] (setting [14]) was more than 12 µg/mL throughout.

On to `CC(C)CCC1=C(O)C(CCC(C)C)(CCC(C)C)C(=O)C(C(=O)C(C)C)=C1O` [Hexahydrocolupulone (HHCL), Hexahydrocolupulone], for which, in data set [9] (3T3-L1, 6.25 µg/ml, indexed to insulin only control, read-out: IL-6 Index), the activity at 6.25 µg/mL stood at 100%. Also, in data set [9] (3T3-L1, 25.0 µg/ml, indexed to insulin only control, read-out: IL-6 Index), the activity at 25 µg/mL stood at 119%. Further, in [9] (3T3-L1, 50.0 µg/ml, indexed to insulin only control, read-out: IL-6 Index), the activity at 50 µg/mL stood at 277%. Moreover, in data set [10] (setting [15]), the fold induction at 6.25 µg/mL was 1.05, the fold induction at 25 µg/mL is 1.62 and the fold induction at 50 µg/mL came to 1.65. Moreover, the maximal fold induction in [10] (3T3-L1, read-out: Maximum Adiponectin Secretion) worked out at 1.83. In data set [10] (3T3-L1, read-out: Test Material at Half Maximal Secretion), the EC50 turned out to be 3.2 µg/mL. For the same molecule, the “Adiponectin Index” value in data set [12] (3t3-l1 adipocytes) is listed as 1.71#. Further, in data set [6] (hops compounds 10, 5, 4 or 2 µg/ml, spent hops 50 µg/ml, positive controls indomethacin 5.0 and troglitazone […]), the “adipogenic response (lipid content relative to solvent control)” value is reported as “failed to elicit a lipogenic response greater than the solvent controls”.

Turning to `COc1ccc2cc3[n+](cc2c1OC)CCc1cc2c(cc1-3)OCO2` [Berberine], the figures for the IC50 in [3] (RAW264.7) and in [3] (setting [14]) were 3.3 µg/mL and 2 to 6 µg/mL, respectively.
